Measurements from patent publication US20230348426A1, “OXOPYRROLIDINE FPR2 AGONISTS” (Bristol-Myers Squibb Company, priority 2020, published 2023).

Key:
[1] = molecular target: human FPR2 (Homo sapiens (Human), UniProt P25090); test: FPR2 cyclic adenosine monophosphate (cAMP) assay; assay type: cell-based; conditions: CHO cells overexpressing human FPR2; forskolin 5 µM; inhibition of cAMP production; read-out: hFPR2 cAMP2 EC50
Summary of the method: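 Inhibition of forskolin-driven (5 µM) cAMP, with 200 µM IBMX, measured in human FPR2-expressing CHO cells, 2,000 per well, 30 min at room temperature; compounds tested 0.020 nM to 100 µM in 1% DMSO. HTRF 665/590 ratio converted to cAMP via calibration curve, then 4-parameter fit.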

[2] = molecular target: human FPR1 (Homo sapiens (Human), UniProt P21462); test: FPR1 cyclic adenosine monophosphate (cAMP) assay; assay type: cell-based; conditions: CHO cells overexpressing human FPR1; forskolin 10 µM; inhibition of cAMP production; read-out: hFPR1 cAMP EC50
Sequence of human FPR1 (P21462 whole entry): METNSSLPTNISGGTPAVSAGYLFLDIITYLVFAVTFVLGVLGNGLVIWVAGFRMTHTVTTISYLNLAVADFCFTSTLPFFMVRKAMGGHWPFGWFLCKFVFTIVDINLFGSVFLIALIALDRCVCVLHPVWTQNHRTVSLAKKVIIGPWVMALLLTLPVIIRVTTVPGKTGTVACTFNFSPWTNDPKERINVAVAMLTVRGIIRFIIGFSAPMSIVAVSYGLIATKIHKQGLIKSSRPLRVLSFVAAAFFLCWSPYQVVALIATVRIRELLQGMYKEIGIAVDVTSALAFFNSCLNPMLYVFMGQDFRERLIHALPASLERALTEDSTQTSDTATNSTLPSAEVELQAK
Summary of the method: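 Human FPR1-expressing CHO cells were used at 4,000 per well, with compound at 0.020 nM–100 µM in 1% DMSO. Potency came from a 4-parameter logistic fit.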

Sequence of human FPR2 (P25090 whole entry): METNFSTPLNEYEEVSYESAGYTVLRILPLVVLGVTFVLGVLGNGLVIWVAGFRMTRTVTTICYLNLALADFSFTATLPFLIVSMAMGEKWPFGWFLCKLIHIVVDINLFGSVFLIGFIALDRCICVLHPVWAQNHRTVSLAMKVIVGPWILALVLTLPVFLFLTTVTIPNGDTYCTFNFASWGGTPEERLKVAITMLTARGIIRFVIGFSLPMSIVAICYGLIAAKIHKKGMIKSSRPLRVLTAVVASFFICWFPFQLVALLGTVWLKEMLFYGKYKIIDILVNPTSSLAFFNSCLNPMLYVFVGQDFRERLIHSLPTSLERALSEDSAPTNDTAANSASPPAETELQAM

SMILES | EC50 [1] [nM] | EC50 [2] [nM]
COCC(C(=O)N(C)C)n1ccc(C)c(N2C[C@@H](c3c(F)cc(OC)cc3F)[C@H](NC(=O)c3ccc(OC(F)(F)F)cc3)C2=O)c1=O (some centres unmarked) [Example 248] | 6.9 | 0.7
CCn1cccc(N2C[C@@H](c3ccc(OC)cc3F)[C@H](NC(=O)c3ccc(OC(F)(F)F)cc3)C2=O)c1=O [Example 249] | 6.9 | 13
COCC(CO)n1cccc(N2C[C@@H](c3ccc(OC)cc3)[C@H](NC(=O)c3ccc(OC(F)F)cc3)C2=O)c1=O (some centres unmarked) [Example 252] | 7 | 44
COc1cc(F)c([C@@H]2CN(c3cccn(CC(C)OC)c3=O)C(=O)[C@H]2NC(=O)c2ccc(OC(F)F)cc2)c(F)c1 (some centres unmarked) [Example 253] | 7 | 11
COc1cc(F)c([C@@H]2CN(c3cccn(CC(C)(CO)CO)c3=O)C(=O)[C@H]2NC(=O)c2ccc(OC(F)(F)F)cc2)c(F)c1 [Example 254] | 7 | 52
CCn1cccc(N2C(=O)[C@@H](NC(=O)c3ccc(OC(F)F)cc3)[C@H](c3c(F)cc(OC)cc3F)[C@H]2C)c1=O [Example 255] | 7 | 52
COCC(C(=O)N(C)C)n1ccc(C)c(N2C[C@@H](c3c(F)cc(OC)cc3F)[C@H](NC(=O)c3ccc(OC(F)F)cc3)C2=O)c1=O (some centres unmarked) [Example 257] | 7.3 | 1.6
COc1cc(F)c([C@@H]2CN(c3cccn(CCF)c3=O)C(=O)[C@H]2NC(=O)c2ccc(OC(F)F)cc2)c(F)c1 [Example 258] | 7.4 | 83
COCCn1ccc(C)c(N2C[C@@H](c3ccc(OC)cc3)[C@H](NC(=O)c3ccc(OC(F)F)cc3)C2=O)c1=O [Example 260] | 7.5 | 1.2
CNc1ccnc(N2C[C@@H](c3c(F)cc(OC)cc3F)[C@H](NC(=O)c3ccc(OC(F)F)cc3)C2=O)c1C(F)(F)F [Example 261] | 7.5 | 940
COc1cc(F)c([C@@H]2CN(c3c(C)ccn(CCO)c3=O)C(=O)[C@H]2NC(=O)c2ccc(OC(F)F)cc2)c(F)c1 [Example 262] | 7.5 | 18
COc1ccc([C@@H]2CN(c3c(C)ccn(C4CCOC4)c3=O)C(=O)[C@H]2NC(=O)c2ccc(OC(F)F)cc2)cc1 (some centres unmarked) [Example 265] | 7.6 | 1.5
COCCn1cc(F)cc(N2C[C@@H](c3c(F)cc(OC)cc3F)[C@H](NC(=O)c3ccc(OC(F)F)cc3)C2=O)c1=O [Example 268] | 7.7 | 140
COc1cc(F)c([C@@H]2CN(c3cccn(CC4CC(F)(F)C4)c3=O)C(=O)[C@H]2NC(=O)c2ccc(OC(F)(F)F)cc2)c(F)c1 [Example 269] | 7.7 | 27
COc1cc(F)c([C@@H]2CN(c3cccn(CC4CC4)c3=O)C(=O)[C@H]2NC(=O)c2ccc(OC(F)(F)F)cc2)c(F)c1 [Example 272] | 7.8 | 14
COCCn1cccc(N2C[C@@H](c3ccc(OC)cc3)[C@H](NC(=O)c3ccc(OC(F)F)cc3)C2=O)c1=O [Example 276] | 8 | 13
COc1cc(F)c([C@@H]2CN(c3cccn(CCN4CCOCC4)c3=O)C(=O)[C@H]2NC(=O)c2ccc(OC(F)(F)F)cc2)c(F)c1 [Example 278] | 8.1 | 340
COc1cc(F)c([C@@H]2CN(c3nccc(N4CCN(S(C)(=O)=O)CC4)c3C(F)(F)F)C(=O)[C@H]2NC(=O)c2ccc(OC(F)F)cc2)c(F)c1 [Example 282] | 8.3 | 700
COCC(C(=O)N(C)C)n1cccc(N2C[C@@H](c3c(F)cc(OC)cc3F)[C@H](NC(=O)c3ccc(OC(F)(F)F)cc3)C2=O)c1=O (some centres unmarked) [Example 283] | 8.4 | 19
COCCn1ccc(C)c(N2C[C@@H](c3ccc(OC)cc3F)[C@H](NC(=O)c3ccc(OC(F)(F)F)cc3)C2=O)c1=O [Example 288] | 8.6 | 0.8
COCC(CO)n1cccc(N2C(=O)[C@@H](NC(=O)c3ccc(OC(F)(F)F)cc3)[C@H](c3c(F)cc(OC)cc3F)[C@@H]2C)c1=O (some centres unmarked) [Example 293] | 8.7 | 44
COc1cc(F)c([C@@H]2CN(c3c(C)ccn(CC(O)C(F)(F)F)c3=O)C(=O)[C@H]2NC(=O)c2ccc(OC(F)F)cc2)c(F)c1 (some centres unmarked) [Example 294] | 8.8 | 9.1
COCC(C(=O)N(C)C)n1ccc(C)c(N2C[C@@H](c3ccc(OC)cc3)[C@H](NC(=O)c3ccc(OC(F)F)cc3)C2=O)c1=O (some centres unmarked) [Example 295] | 8.9 | 0.6
COc1cc(F)c([C@@H]2CN(c3c(C)ccn(CC(OC)C(F)(F)F)c3=O)C(=O)[C@H]2NC(=O)c2ccc(OC(F)(F)F)cc2)c(F)c1 (some centres unmarked) [Example 297] | 9 | 0.1

Other lines, results leading:

EC50 [1] [nM] | EC50 [2] [nM] | SMILES
6.9 | 4800 | COc1cc(F)c([C@@H]2CN(c3nccc(N4CCN(C)CC4)c3C(F)(F)F)C(=O)[C@H]2NC(=O)c2ccc(Cl)cc2)c(F)c1 [Example 250]
7 | > 5000 | COc1cc(F)c([C@@H]2CN(c3c(C#N)ccn(C)c3=O)C(=O)[C@H]2NC(=O)c2ccc(Cl)cc2)c(F)c1 [Example 251]
7.2 | 530 | COc1cc(F)c([C@@H]2CN(c3nc(N4C[C@H]5C[C@@H]4CO5)ccc3F)C(=O)[C@H]2NC(=O)c2ccc(OC(F)F)cc2)c(F)c1 [Example 256]
7.4 | 580 | COc1cc(F)c([C@@H]2CN(c3nc(N4C[C@@H]5C[C@H]4CN5C)ccc3OC)C(=O)[C@H]2NC(=O)c2ccc(Cl)cc2)c(F)c1 [Example 259]
7.5 | 1300 | COc1cc(F)c([C@@H]2CN(c3nccc(NC4CCOC4)c3C(F)(F)F)C(=O)[C@H]2NC(=O)c2ccc(Cl)cc2)c(F)c1 (some centres unmarked) [Example 263]
7.6 | 410 | COc1cc(F)c([C@@H]2CN(c3nc(N4C(=O)CC[C@H]4CO)ccc3F)C(=O)[C@H]2NC(=O)c2ccc(OC(F)F)cc2)c(F)c1 [Example 266]
7.7 | 1600 | COc1cc(F)c([C@@H]2CN(c3cc(F)cc(C(C)(C)O)c3)C(=O)[C@H]2NC(=O)c2ccc(Cl)cc2)c(F)c1 [Example 267]
7.8 | 180 | COc1cc(F)c([C@@H]2CN(c3nc(C4CCNCC4)ccc3C(F)(F)F)C(=O)[C@H]2NC(=O)c2ccc(OC(F)F)cc2)c(F)c1 [Example 270]
7.8 | 1400 | COc1cc(F)c([C@@H]2CN(c3nc(NC4CCOC4)ccc3F)C(=O)[C@H]2NC(=O)c2ccc(OC(F)F)cc2)c(F)c1 (some centres unmarked) [Example 271]
7.8 | 1400 | COc1cc(F)c([C@@H]2CN(c3cccn(CCO)c3=O)C(=O)[C@H]2NC(=O)c2ccc(C)cc2)c(F)c1 [Example 273]
8 | 6100 | CNC(=O)C(C)Nc1ccnc(N2C[C@@H](c3c(F)cc(OC)cc3F)[C@H](NC(=O)c3ccc(Cl)cc3)C2=O)c1C(F)(F)F (some centres unmarked) [Example 275]
8 | 210 | COCCn1cccc(N2C[C@@H](c3c(F)cc(OC)cc3F)[C@H](NC(=O)c3ccc(C(F)(F)F)cc3)C2=O)c1=O [Example 277]
8.1 | 5800 | COc1cc(F)c([C@@H]2CN(c3nccc(N4CCN(C)CC4)c3C(F)(F)F)C(=O)[C@H]2NC(=O)c2ccc(OC(F)F)cc2)c(F)c1 [Example 279]
8.2 | 26 | COc1cc(F)c([C@@H]2CN(c3nc(N4CCCC4=O)ccc3F)C(=O)[C@H]2NC(=O)c2ccc(OC(F)F)cc2)c(F)c1 [Example 280]
8.2 | 560 | COc1cc(F)c([C@@H]2CN(c3nccc(NCC(=O)NC4CC4)c3C(F)(F)F)C(=O)[C@H]2NC(=O)c2ccc(Cl)cc2)c(F)c1 [Example 281]
8.4 | 580 | COc1cc(F)c([C@@H]2CN(c3nc(N4C[C@@H](C)N(C)[C@@H](C)C4)ccc3OC)C(=O)[C@H]2NC(=O)c2ccc(Cl)cc2)c(F)c1 [Example 284]
2.9 | 220 | COc1cc(N2C[C@@H](c3c(F)cc(OC)cc3F)[C@H](NC(=O)c3ccc(OC(F)F)cc3)C2=O)nc(N2C[C@@H]3C[C@H]2CN3C)c1 [Example 285]
8.5 | 130 | COc1cc(F)c([C@@H]2CN(c3c(Cl)ccn(C)c3=O)C(=O)[C@H]2NC(=O)c2ccc(OC(F)F)cc2)c(F)c1 [Example 286]
8.6 | 4600 | COc1cc(F)c([C@@H]2CN(c3nccc(N4CCN(C)CC4)c3C#N)C(=O)[C@H]2NC(=O)c2ccc(Cl)cc2)c(F)c1 [Example 287]
8.6 | 1800 | CNC(=O)C(C)Nc1ccnc(N2C[C@@H](c3c(F)cc(OC)cc3F)[C@H](NC(=O)c3ccc(Cl)cc3)C2=O)c1C(F)(F)F (some centres unmarked) [Example 290]
8.7 | 6.6 | COc1cc(F)c([C@@H]2CN(c3c(C)ccn(C)c3=O)C(=O)[C@H]2NC(=O)c2ccc(OC(F)(F)F)cc2)c(F)c1 [Example 291]
8.7 | 950 | COCCn1cccc(N2C[C@@H](c3c(F)cc(OC)cc3F)[C@H](NC(=O)c3ccc(C)cc3)C2=O)c1=O [Example 292]
9 | 8.5 | COc1cc(F)c([C@@H]2CN(c3cccn(C4CCOC4)c3=O)C(=O)[C@H]2NC(=O)c2ccc(OC(F)(F)F)cc2)c(F)c1 (some centres unmarked) [Example 298]
9.2 | 1900 | COc1cc(F)c([C@@H]2CN(c3cc(NC(C)=O)cn(C)c3=O)C(=O)[C@H]2NC(=O)c2ccc(Cl)cc2)c(F)c1 [Example 299]
9.3 | 360 | COc1cc(F)c([C@@H]2CN(c3cccnn3)C(=O)[C@H]2NC(=O)c2ccc(OC(F)F)cc2)c(F)c1 [Example 300]
